Reference: ChEMBL document CHEMBL3112474, “Discovery of substituted lactams as novel dual orexin receptor antagonists. Synthesis, preliminary structure-activity relationship studies and efforts towards improved metabolic stability and pharmacokinetic properties. Part 1” (Bioorg Med Chem Lett, 2014)

Assays:
[1] = biological target: T1, Orexin/Hypocretin receptor type 1 (Homo sapiens, UniProt O43613); assay: Antagonist activity at human orexin 1 receptor expressed in CHO cells assessed as inhibition of orexin-A-induced calcium mobilization by FLIPR assay; assay type: functional, cell-based
T1 sequence (O43613 whole entry): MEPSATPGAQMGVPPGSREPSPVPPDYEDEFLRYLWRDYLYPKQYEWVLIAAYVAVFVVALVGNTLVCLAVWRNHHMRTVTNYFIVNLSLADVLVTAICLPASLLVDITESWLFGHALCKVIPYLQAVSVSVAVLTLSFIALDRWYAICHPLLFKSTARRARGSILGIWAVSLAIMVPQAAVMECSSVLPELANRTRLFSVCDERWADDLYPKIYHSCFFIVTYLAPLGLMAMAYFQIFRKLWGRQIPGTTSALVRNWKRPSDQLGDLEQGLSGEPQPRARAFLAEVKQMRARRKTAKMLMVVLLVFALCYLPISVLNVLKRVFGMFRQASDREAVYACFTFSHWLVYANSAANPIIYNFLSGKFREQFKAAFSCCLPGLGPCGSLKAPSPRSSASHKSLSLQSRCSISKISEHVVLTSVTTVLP

Orexin receptor type 2 = biological target: T2, Orexin receptor type 2 (Homo sapiens, UniProt O43614); assay: Antagonist activity at human orexin 2 receptor expressed in CHO cells assessed as inhibition of orexin-A-induced calcium mobilization by FLIPR assay; assay type: functional, cell-based
T2 sequence (O43614 whole entry): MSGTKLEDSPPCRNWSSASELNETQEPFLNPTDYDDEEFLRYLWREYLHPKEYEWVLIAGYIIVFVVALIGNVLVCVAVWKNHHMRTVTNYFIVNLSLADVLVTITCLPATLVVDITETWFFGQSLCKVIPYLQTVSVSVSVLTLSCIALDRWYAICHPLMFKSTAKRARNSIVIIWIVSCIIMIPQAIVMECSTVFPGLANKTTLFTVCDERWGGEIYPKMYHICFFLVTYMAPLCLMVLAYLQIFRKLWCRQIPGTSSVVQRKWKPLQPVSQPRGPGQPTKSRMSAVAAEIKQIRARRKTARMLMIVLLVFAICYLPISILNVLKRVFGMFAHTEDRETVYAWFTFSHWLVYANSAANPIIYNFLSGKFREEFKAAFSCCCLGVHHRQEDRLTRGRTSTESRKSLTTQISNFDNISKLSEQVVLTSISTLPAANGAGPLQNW

[2] = Intrinsic clearance in human liver microsomes at 1 uM; assay type: ADME; conditions: read-out: CLH
[3] = Intrinsic clearance in rat liver microsomes at 1 uM; assay type: ADME; conditions: read-out: CLH
Cerebrospinal fluid = assay: Drug level in Wistar rat cerebrospinal fluid at 100 mg/kg, po; assay type: ADME, organism-based; parameters: dose 100 mg/kg, route oral; conditions: in vivo
MDR1 [4] = assay: Apparent passive permeability across apical to basolateral side in MDCK cells expressing human MDR1; assay type: ADME, cell-based, Canis lupus familiaris; conditions: dog
Cytochrome P450 3A4 = Cytochrome P450 3A4 (Homo sapiens, UniProt P08684); assay: Inhibition of CYP3A4 (unknown origin); assay type: ADME
Cytochrome P450 3A4, sequence (P08684 whole entry): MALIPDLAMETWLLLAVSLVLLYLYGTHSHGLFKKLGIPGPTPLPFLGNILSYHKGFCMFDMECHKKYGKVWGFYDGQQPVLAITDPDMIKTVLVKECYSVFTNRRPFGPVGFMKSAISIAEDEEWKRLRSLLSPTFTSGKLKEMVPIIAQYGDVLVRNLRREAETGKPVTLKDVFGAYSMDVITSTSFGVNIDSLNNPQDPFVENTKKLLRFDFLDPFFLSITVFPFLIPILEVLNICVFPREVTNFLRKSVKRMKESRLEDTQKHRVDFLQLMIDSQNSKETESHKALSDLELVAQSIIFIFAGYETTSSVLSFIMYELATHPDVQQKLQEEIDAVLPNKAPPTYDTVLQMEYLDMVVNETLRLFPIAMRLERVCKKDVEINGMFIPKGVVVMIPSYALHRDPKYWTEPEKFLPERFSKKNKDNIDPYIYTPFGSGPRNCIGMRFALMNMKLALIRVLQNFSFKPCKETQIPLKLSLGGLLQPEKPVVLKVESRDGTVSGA

MDR1 [5] = assay: Apparent passive permeability across basolateral to apical side in MDCK cells expressing human MDR1; assay type: ADME, cell-based, Canis lupus familiaris; conditions: dog
Cytochrome P450 2D6 = Cytochrome P450 2D6 (Homo sapiens, UniProt P10635); assay: Inhibition of CYP2D6 (unknown origin); assay type: ADME
Cytochrome P450 2D6, sequence (P10635 whole entry): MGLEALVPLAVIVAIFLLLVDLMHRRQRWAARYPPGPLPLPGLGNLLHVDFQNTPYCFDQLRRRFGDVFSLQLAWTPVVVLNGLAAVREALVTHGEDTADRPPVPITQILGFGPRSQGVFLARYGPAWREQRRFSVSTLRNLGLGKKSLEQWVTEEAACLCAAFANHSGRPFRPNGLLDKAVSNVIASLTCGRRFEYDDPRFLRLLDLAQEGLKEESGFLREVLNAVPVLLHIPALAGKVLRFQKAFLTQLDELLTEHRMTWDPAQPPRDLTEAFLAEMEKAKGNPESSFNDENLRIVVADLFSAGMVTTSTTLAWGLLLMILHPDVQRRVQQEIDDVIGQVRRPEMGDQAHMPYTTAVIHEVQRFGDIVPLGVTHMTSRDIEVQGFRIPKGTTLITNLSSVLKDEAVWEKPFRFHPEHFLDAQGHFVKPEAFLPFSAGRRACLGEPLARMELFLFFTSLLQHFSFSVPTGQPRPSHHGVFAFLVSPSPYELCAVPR

[6] = Plasma concentration in Wistar rat at 100 mg/kg, po after 3 hrs; assay type: ADME, organism-based; parameters: dose 100 mg/kg, route oral
[7] = Ratio of drug level in brain to plasma in Wistar rat at 100 mg/kg, po after 3 hrs; assay type: ADME, organism-based; parameters: dose 100 mg/kg, route oral; conditions: read-out: BPR
Cytochrome P450 2C9 = Cytochrome P450 2C9 (Homo sapiens, UniProt P11712); assay: Inhibition of CYP2C9 (unknown origin); assay type: ADME
Cytochrome P450 2C9, sequence (P11712 whole entry): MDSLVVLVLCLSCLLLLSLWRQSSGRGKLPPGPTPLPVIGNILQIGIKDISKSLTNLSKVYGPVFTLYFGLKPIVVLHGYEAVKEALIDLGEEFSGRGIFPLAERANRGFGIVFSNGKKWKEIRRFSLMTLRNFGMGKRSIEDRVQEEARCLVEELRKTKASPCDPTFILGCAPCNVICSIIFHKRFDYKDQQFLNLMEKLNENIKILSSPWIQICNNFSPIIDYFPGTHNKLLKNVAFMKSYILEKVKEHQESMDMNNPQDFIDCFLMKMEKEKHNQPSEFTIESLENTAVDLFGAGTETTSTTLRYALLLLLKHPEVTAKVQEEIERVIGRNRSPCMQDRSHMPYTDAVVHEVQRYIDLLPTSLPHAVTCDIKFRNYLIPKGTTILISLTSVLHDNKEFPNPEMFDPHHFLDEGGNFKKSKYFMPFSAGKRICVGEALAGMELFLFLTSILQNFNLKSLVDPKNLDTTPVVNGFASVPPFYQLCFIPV

[8] = Drug level in Wistar rat brain at 100 mg/kg, po after 3 hrs; assay type: ADME, organism-based; parameters: dose 100 mg/kg, route oral; conditions: read-out: Drug uptake
[9] = Half life in human liver microsomes; assay type: ADME

Structure (SMILES)	IC50 [1] [nM]	IC50 (Orexin receptor type 2) [nM]	microsomal CLint at 1 µM [2] [µL/min/mg]	also measured
COc1cccc(OC)c1C1COC(=O)N1Cc1ccc(OC(F)(F)F)cc1 (racemic)	2650	771	–	–
COc1ccc2nc(C)oc2c1C1CCCC(=O)N1Cc1cccc(-c2csc(C)n2)c1 (racemic)	17	65	> 1250	–
COc1cccc(OC)c1C1CC(C)C(=O)N1Cc1ccc2sc(C)nc2c1 (mixture of isomers)	–	–	88	–
COc1cc(OC)c(C2CCCCN2Cc2ccc(OC(F)(F)F)cc2)c(OC)c1 (racemic)	1590	> 10000	–	–
COc1ccnc(OC)c1C1CCCC(=O)N1Cc1csc(-c2ccccc2)n1 (racemic)	–	–	912	–
COc1cccc(OC)c1C1CCCC(=O)N1Cc1csc(-c2ccccc2)n1 (racemic)	45	6	> 1250	–
COc1cccc(OC)c1C1CCCC(=O)N1Cc1ccccc1 (racemic)	2420	416	–	–
COc1ccnc(OC)c1C1CCCC(=O)N1Cc1ccc2oc3ccccc3c2c1 (racemic)	–	–	1130	–
COc1cccc(OC)c1C1CCCC(=O)N1Cc1cnc2ccccc2c1 (racemic)	675	217	–	–
COc1cccc(OC)c1C1CCCC(=O)N1c1ccccc1 (racemic)	> 10000	> 10000	–	–
COc1cccc(OC)c1C1CCCC(=O)N1Cc1ccnc(-n2cccn2)c1 (racemic)	–	–	> 1250	–
COc1cccc(OC)c1C1CCCC(=O)N1Cc1ccc2ccccc2n1 (single isomer, unassigned)	–	–	> 1250	microsomal CLint at 1 µM [3]: > 1250 µL/min/mg; Drug uptake (Cerebrospinal fluid): 23 ng/mL; Papp A→B (MDR1 [4]): 24.2 ×10⁻⁶ cm/s; IC50 (Cytochrome P450 3A4): > 30000 nM; Papp B→A (MDR1 [5]): 63.2 ×10⁻⁶ cm/s; IC50 (Cytochrome P450 2D6): > 30000 nM; concentration at 3 h [6]: 140 ng/mL; Kp at 3 h [7]: 0.8; IC50 (Cytochrome P450 2C9): > 30000 nM; concentration at 3 h [8]: 108 ng/g
COc1cccc(OC)c1C1CCCC(=O)N1Cc1ccc2ccccc2c1 (racemic)	–	–	> 1250	half-life [9]: < 1 min
COc1cccc(OC)c1C1CCCC(=O)N1Cc1ccc2sc(C)nc2c1 (racemic)	32	12	860	–
COc1cccc(OC)c1C1CCCC(=O)N1Cc1ccc2ccccc2n1 (racemic)	49	–	–	–
COc1cccc(OC)c1C1CCCC(=O)N1Cc1cccc(-c2ccccc2)n1 (racemic)	–	–	> 1250	–
COc1cccc(OC)c1C1COCC(=O)N1Cc1ccc(OC(F)(F)F)cc1 (racemic)	–	–	> 1250	–
COc1cccc(OC)c1C1CCCC(=O)N1C(C)c1ccc(OC(F)(F)F)cc1 (mixture of isomers)	142	21	> 1250	–
COc1cccc(OC)c1C1CCC(C)C(=O)N1Cc1ccc(OC(F)(F)F)cc1 (mixture of isomers)	–	–	649	–
COc1cccc(OC)c1C1CC(C)CC(=O)N1Cc1ccc(OC(F)(F)F)cc1 (mixture of isomers)	–	–	645	–

Structure (SMILES)	IC50 [1] [nM]	IC50 (Orexin receptor type 2) [nM]	microsomal CLint at 1 µM [2] [µL/min/mg]	also measured
COc1cccc(OC)c1C1CCCC(=O)N1CCc1ccccc1 (racemic)	9700	1330	–	–
COc1cccc(OC)c1C1CCCC(=O)N1Cc1ccnc(-c2ccccc2)c1 (racemic)	–	–	> 1250	–
COc1cccc(OC)c1C1SCC(=O)N1Cc1ccc(OC(F)(F)F)cc1 (racemic)	155	16	–	–
COc1cccc(OC)c1C1CCCC(=O)N1Cc1cccc(-c2ncccn2)c1 (configuration not stated)	–	–	> 1250	–
COc1cccc(OC)c1[C@H]1C[C@H](C)C(=O)N1Cc1ccc(OC(F)(F)F)cc1 (racemic)	–	–	257	–
COc1cccc(OC)c1C1CCCC(=O)N1Cc1ccc2oc3ccccc3c2c1 (racemic)	–	–	1200	–
COc1cccc(OC)c1C1CC(C)C(=O)N1Cc1ccc2oc3ccccc3c2c1 (mixture of isomers)	4	9	260	–
COc1cccc(OC)c1C1CCCC(=O)N1Cc1cccc(-c2csc(C)n2)c1 (racemic)	–	–	> 1250	–
COc1cccc(OC)c1C1CCCC(=O)N1Cc1ccnc(-c2nccs2)c1 (racemic)	–	–	> 1250	–
COc1cccc(OC)c1C1CCCC(=O)N1Cc1cccc(-c2ccccn2)c1 (racemic)	–	–	> 1250	–
COc1ccc2nc(C)oc2c1C1CCCC(=O)N1Cc1cccc(-c2ccccc2)c1 (racemic)	54	93	> 1250	–
COc1cccc(OC)c1C1CCCC(=O)N1Cc1ccc(OC(F)(F)F)cc1 (racemic)	284	25	> 1250	concentration at 3 h [6]: 94 ng/mL; Kp at 3 h [7]: 1.6; concentration at 3 h [8]: 153 ng/g
COc1cccc(OC)c1C1CCC(=O)N1Cc1ccc(OC(F)(F)F)cc1 (racemic)	–	–	670	–
COc1cccc(OC)c1C1C2CC2C(=O)N1Cc1ccc(OC(F)(F)F)cc1 (mixture of isomers)	1150	1070	–	–
COc1cccc(OC)c1C1CCCCC(=O)N1Cc1ccc(OC(F)(F)F)cc1 (racemic)	264	74	> 1250	–
COc1cccc(OC)c1C1c2ccccc2C(=O)N1Cc1ccc(OC(F)(F)F)cc1 (racemic)	> 10000	> 10000	–	–
COc1cccc(OC)c1C1CCCC(=O)N1Cc1cccc(-n2nccn2)c1 (racemic)	–	–	> 1250	–
COc1cccc(OC)c1C1CCCC(=O)N1Cc1cccc(-c2ccccc2)c1 (racemic)	65	28	> 1250	–
COc1cccc(OC)c1C1CCCC(=O)N1Cc1ccc(Oc2ccccc2)cc1 (racemic)	531	29	–	–
COc1cccc(F)c1C1CCCC(=O)N1Cc1ccc(OC(F)(F)F)cc1 (racemic)	–	161	–	–
